The values that follow come from patent publication US20240059688A1, “CONOLIDINE ANALOGUES AS SELECTIVE ACKR3 MODULATORS FOR THE TREATMENT OF CANCER” (Luxembourg Institute of Health (LIH), priority 2020, published 2024).

SMILES strings stand for the structures. Marks after values point to notes of the source that are not given here.

Format in all cases: cell-based
Assay [1] deals with ACKR3 (Homo sapiens, UniProt P25106). The assay is described as follows: NanoBiT β-arrestin-1 recruitment, receptor selectivity panel, ACKR3. Conditions: for modulation of ACKR3 in comparison with opioid receptor reference molecules (β-arrestin1 recruitment): NanoBiT, ACKR3 versus MOR, DOR, KOR, NOP, FIG. 5; for activation of ACKR3 (β-arrestin-1 recruitment) in receptor panel: concentration of 1 μM, FIG. 3 section A. The arrangement: expressed in transfected cells; host or cells: U87. The protocol:
(§1) To further assess the selectivity profile of the compounds of the invention towards ACKR3, the ability to activate the 21 classical and 4 atypical chemokines receptors and related receptors was tested using the NanoBiT assay based β-arrestin-1 recruitment described previously. The 4 classical opioid receptors described above were also included in the experimental setup. The compounds WW-1 (conolidine) and WW-12 were tested at three different concentrations, 1 μM, 3 μM and 10 μM.
The ability of the compounds of the invention to activate ACKR3 and classical opioid receptors with reference synthetic molecules and approved pain medications such as morphine, fentanyl or buprenorphine that are known to modulate the classical opioid receptors MOR, DOR, KOR and NOP was also tested in NanoBiT based β-arerstin1 recruitment assay. […] The results are depicted in FIG. 5.
(§2) Ligand-induced β-arrestin recruitment to chemokine and opioid receptors was monitored by NanoLuc complementation assay (NanoBiT, Promega). In brief, 1.2×10^6 U87 cells were plated in 10-cm culture dishes and 48 hours later co-transfected with pNBe vectors encoding GPCRs (ACKR3, MOR, DOR, KOR, or NOP) C-terminally tagged with SmBiT and human β-arrestin-1 (arrestin-2) or β-arrestin-2 (arrestin-3) N-terminally fused to LgBiT. 48 hours post-transfection cells were harvested, incubated 25 minutes at 37° C. with Nano-Glo Live Cell substrate diluted 200-fold and distributed into white 96-well plates (5×10^4 cells per well). Ligand-induced, β-arrestin to GPCRs was evaluated with a Mithras LB940 luminometer (Berthold Technologies, running on MicroWin 2010 5.19 software (Mikrotek Laborsysteme)) for 20 minutes.
(§3) For single dose screening experiments on all chemokine receptors(FIG. 3), the results are represented as percentage of signal monitored with 100 nM of one known agonist chemokine listed in the IUPHAR repository of chemokine receptor ligands which was added as positive control.
For orientation: Activated receptors often draw arrestin, which recruitment assays turn into a signal.

Assay [2] deals with T1, mouse ACKR3 (Mus musculus, UniProt P56485).
T1 construct: expressed in transfected cells; host or cells: U87
The assay is described as follows: NanoBiT-based β-arrestin-2 recruitment assay, mouse ACKR3 in U87 cells. Conditions: for agonist efficacy at mACKR3 compared to CXCL-12: NanoBiT β-arrestin-2 recruitment, reference ligand CXCL-12; for EC50: NanoBiT, U87 cells, FIG. 1 section C, read-out: EC50, β-arrestin-2 recruitment to mouse receptor (mACKR3). As to the method:
Concentration-response studies were performed with molecules WW-1 (conolidine) and WW-12 on the human and mouse ACKR3 receptors in U87 cells using a NanoBiT-based β-arrestin-2 recruitment assay […] to evaluate their efficacy and potency towards the two receptors.
as §2
For concentration-response curves (FIG. 2), the signal recorded with a saturating concentration of full agonist for each receptor was set as 100%. To evaluate the antagonist properties of ligands, full agonists of each receptor (50 nM BAM22 for MOR, 50 nM dynorphin A for KOR, 70 nM met-enkephalin for DOR, 70 nM nociceptin for NOP and 4 nM CXCL12 for ACKR3) were added after the 20-minute incubation with the ligands.

Assay [3] addresses T2, ACKR4 (Homo sapiens, UniProt Q9NPB9).
T2 construct: expressed in transfected cells; host or cells: U87
T2 sequence (Q9NPB9 1-350): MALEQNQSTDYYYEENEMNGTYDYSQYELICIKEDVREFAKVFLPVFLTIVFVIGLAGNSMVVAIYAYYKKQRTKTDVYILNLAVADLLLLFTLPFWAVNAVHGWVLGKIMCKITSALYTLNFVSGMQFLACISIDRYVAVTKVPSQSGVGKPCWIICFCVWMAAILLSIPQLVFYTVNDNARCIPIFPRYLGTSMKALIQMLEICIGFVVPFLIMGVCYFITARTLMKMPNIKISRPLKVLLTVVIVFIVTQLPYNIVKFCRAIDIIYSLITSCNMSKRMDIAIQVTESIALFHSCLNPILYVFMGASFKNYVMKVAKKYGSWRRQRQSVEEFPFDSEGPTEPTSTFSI
Nature of the assay: NanoBiT β-arrestin-1 recruitment, receptor selectivity panel, ACKR4. Conditions: higher concentrations (3 μM, 10 μM); FIG. 3 sections B and C. The protocol: as §1
This possible off-target effect was further characterized by comparing the ability of the two molecules to activate receptors ACKR4, CX3CR1 and CCR3 with reference ligands for the receptors, namely CCL19, CX3CL1 and CCL13.
Ligand-induced β-arrestin recruitment to chemokine and opioid receptors was monitored by NanoLuc complementation assay (NanoBiT, Promega). […] Ligand-induced, β-arrestin to GPCRs was evaluated with a Mithras LB940 luminometer (Berthold Technologies, running on MicroWin 2010 5.19 software (Mikrotek Laborsysteme)) for 20 minutes.
as §3

In assay [4] the target is KOR (Homo sapiens, UniProt P41145). The assay is described as follows: KOR calcium mobilization agonist/antagonist screen (CHO-RD-HGA16 cells). The arrangement: host or cells: CHO-RD-HGA16. Conditions: single concentration; for Emax: CHO-RD-HGA16, agonist screen, control agonist U69,593; for KOR Calcium % U69, 593 Inhibition: antagonist screen, vs EC60 of U69,593. In general terms: A change in cytosolic calcium serves as a functional read-out for many receptors and channels.
Sequence of KOR (P41145 whole entry): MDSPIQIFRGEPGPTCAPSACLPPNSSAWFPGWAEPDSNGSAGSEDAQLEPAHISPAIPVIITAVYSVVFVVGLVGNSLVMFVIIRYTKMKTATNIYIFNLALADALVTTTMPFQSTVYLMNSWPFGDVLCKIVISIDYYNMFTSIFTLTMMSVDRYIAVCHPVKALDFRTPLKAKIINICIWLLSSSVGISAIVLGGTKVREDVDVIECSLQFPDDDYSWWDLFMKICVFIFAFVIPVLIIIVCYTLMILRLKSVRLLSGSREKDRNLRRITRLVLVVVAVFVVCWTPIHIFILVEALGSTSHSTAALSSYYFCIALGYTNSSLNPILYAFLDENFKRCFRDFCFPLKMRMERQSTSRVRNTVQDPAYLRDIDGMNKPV

T1 sequence (P56485 whole entry): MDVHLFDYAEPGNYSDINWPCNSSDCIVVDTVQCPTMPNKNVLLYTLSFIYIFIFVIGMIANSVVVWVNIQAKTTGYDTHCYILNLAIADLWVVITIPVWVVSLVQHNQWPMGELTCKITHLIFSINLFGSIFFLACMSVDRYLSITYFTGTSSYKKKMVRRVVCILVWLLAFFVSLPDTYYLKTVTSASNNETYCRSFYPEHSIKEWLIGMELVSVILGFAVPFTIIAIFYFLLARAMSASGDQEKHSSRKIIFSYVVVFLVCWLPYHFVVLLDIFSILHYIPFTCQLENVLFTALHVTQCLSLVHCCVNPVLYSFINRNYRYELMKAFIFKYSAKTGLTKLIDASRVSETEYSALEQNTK
T1 sequence (P32121 whole entry partner): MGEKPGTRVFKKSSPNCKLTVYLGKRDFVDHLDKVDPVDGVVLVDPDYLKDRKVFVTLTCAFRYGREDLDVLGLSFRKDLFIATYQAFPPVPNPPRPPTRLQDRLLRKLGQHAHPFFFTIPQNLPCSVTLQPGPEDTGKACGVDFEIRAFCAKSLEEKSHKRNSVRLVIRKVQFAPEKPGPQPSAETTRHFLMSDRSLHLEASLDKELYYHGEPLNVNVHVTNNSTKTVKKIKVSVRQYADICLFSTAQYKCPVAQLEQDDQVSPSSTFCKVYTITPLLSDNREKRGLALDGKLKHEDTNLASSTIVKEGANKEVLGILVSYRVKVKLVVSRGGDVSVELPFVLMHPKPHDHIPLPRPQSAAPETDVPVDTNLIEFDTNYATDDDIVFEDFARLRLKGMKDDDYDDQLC
Sequence of ACKR3 (P25106 whole entry): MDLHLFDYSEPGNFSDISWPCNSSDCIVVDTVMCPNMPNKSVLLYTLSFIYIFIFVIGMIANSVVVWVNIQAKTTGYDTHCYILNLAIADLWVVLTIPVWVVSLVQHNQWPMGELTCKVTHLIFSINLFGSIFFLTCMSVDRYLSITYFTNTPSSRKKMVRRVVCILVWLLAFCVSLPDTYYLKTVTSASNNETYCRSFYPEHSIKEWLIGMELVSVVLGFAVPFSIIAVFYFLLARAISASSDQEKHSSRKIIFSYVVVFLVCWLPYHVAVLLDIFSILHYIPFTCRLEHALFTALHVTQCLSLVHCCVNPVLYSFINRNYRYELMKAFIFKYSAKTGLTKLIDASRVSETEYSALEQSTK
Sequence of ACKR3 (P49407 whole entry partner): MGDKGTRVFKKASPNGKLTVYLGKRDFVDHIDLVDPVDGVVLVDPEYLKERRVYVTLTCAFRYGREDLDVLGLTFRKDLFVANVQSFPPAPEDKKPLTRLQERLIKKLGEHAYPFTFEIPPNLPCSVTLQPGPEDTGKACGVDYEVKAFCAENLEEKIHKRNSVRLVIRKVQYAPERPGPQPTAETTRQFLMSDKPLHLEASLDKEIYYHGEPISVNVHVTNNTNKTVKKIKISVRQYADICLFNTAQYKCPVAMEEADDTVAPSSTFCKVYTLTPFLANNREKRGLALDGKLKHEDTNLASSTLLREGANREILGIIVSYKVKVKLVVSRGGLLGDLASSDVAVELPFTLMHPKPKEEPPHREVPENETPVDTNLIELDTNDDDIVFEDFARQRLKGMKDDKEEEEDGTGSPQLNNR

For `C/C=C1/CN2CC[C@H]1C(=O)c1[nH]c3ccccc3c1C2` [WW-1, (4E,5R)-4-ethylidene-1,4,5,7-tetrahydro-2,5-ethanoazocino[4,3-b]indol-6(3H)-one], in assay [1], the “modulation of ACKR3 in comparison with opioid receptor reference molecules (β-arrestin1 recruitment)” value was “specific ACKR3 activators” and the “activation of ACKR3 (β-arrestin-1 recruitment) in receptor panel” value is “activated ACKR3”. In assay [2], the “agonist efficacy at mACKR3 compared to CXCL-12” value is on record as “full agonists” and the EC50 was 22 µM. In addition, the “activation of ACKR4 (β-arrestin-1 recruitment) in receptor panel” value in assay [3] is on record as “weak activation”. Moreover, in assay [4], the maximal response (Emax) is 9% and the “KOR Calcium % U69, 593 Inhibition” value was 11%.
For the compound `C/C=C1/CN(CCCCC)CC[C@H]1C(=O)c1cc2ccccc2[nH]1` [WW-12, [(3E,4R)-3-ethylidene-1-pentylpiperidin-4-yl](1H-indol-2-yl)methanone], in assay [1], the “modulation of ACKR3 in comparison with opioid receptor reference molecules (β-arrestin1 recruitment)” value was “specific ACKR3 activators” and the “activation of ACKR3 (β-arrestin-1 recruitment) in receptor panel” value is recorded as “activated ACKR3”. In assay [2], the “agonist efficacy at mACKR3 compared to CXCL-12” value is recorded as “full agonists” and the EC50 is 0.9 µM. The “activation of ACKR4 (β-arrestin-1 recruitment) in receptor panel” value in assay [3] was “weak activation”. In assay [4], the Emax turned out to be 7% and the “KOR Calcium % U69, 593 Inhibition” value is reported as 69** %.

The EC50 is the concentration at which the effect is half-maximal. In general, Emax refers to the maximal effect, on the per cent scale that the assay sets.
